Measurements taken from paper PMC3516535, “Rhesus Macaque Theta Defensins Suppress Inflammatory Cytokines and Enhance Survival in Mouse Models of Bacteremic Sepsis” (PLoS ONE, 2012).
Where two headings read alike, the source gives them in different places. Bridge positions count the residues as written; N and C are the ends. Peptide text beside a SMILES is read from it.

Legend:
[1] = test system: human peripheral blood leukocytes (PBL); assay: Cytokine/chemokine release by TLR agonist-stimulated peripheral blood leukocytes (Milliplex); assay type: cell-based
Method: EDTA-anticoagulated blood was obtained from healthy adult volunteers as approved by the Institutional Review Board at USC (protocol # HS-09-00280). Peripheral blood leukocytes (PBL) were harvested from 10–15 ml whole blood after centrifugation at 200× g. Cells were washed twice with 3–5 ml of RPMI, counted with a hemocytometer, and suspended to a cell density of 5×10^5 cells/ml in RPMI +5% human EDTA-plasma. PBLs were stimulated for 4 h with either 0.9 µg/ml ssRNA40, 30 ng/ml S. typhimurium flagellin, 3.3×10^7 CFU/ml heat-killed L. monocytogenes (HKLM), 3 ng/ml E. coli K12 LPS, or 100 CFU/ml of the clinical E. coli isolate. Cytokines/chemokines were quantified using a Milliplex MAP kit on a BioRad Bioplex HTF Luminex reader at the Beckman Center for Immune Monitoring at USC-Norris Cancer Center.

[2] = test system: human EDTA-anti-coagulated blood diluted 1∶10; assay: TNF release assay in stimulated diluted whole blood (ELISA); assay type: cell-based
THP-1 monocytic cells = assay: TNF release assay in LPS-stimulated THP-1 monocytes (ELISA); assay type: cell-based, human; details: THP-1 in RPMI +5% human EDTA-plasma, 1 ng/ml K12 LPS, 4 h, N = 2
Method: THP-1 monocytic cells (ATCC, Manassas, VA) were grown and maintained in RPMI-1640 medium containing 10% fetal bovine serum and penicillin/streptomycin. Cells were harvested by centrifugation, washed with RPMI-1640 medium and suspended at 5×10^5 cells/ml in fresh medium containing 5% human EDTA plasma.
Peptides (RTDs 1–5, human neutrophil α-defensins) were aliquoted into wells of pyrogen-free 12- or 24-well plates wherein final peptide concentrations were 0–10 µg/ml. Wells were inoculated with 1×10^5 CFU/ml S. aureus or 100 CFU/ml E. coli, or 1–3 ng/ml of E. coli K12 LPS. Samples (5–10 µl) containing peptide or bacteria/LPS were placed on opposite sides of the plate well. Mixing commenced with the addition of 0.5 to 2.0 ml of 1∶10 diluted blood, PBLs (5×10^5/ml), or THP-1 cells (2–5×10^5 cells/ml). Plates were incubated at 37°C in 5% CO2 for 4 h with gentle mixing. […] Incubation mixtures were centrifuged at 200× g for 10 min at 22°C and supernatants were clarified by centrifugation at 23,000× g for 15 min at 4°C. Supernatant TNF was quantified by sandwich ELISA (OptEIA II; BD Biosciences; Hu TNF-α, Invitrogen) per suppliers’ directions, using a SpectraMax Plate Reader.

[3] = LPS neutralization assay (Limulus amoebocyte lysate); assay type: biochemical, Escherichia coli; details: LAL assay, 0–10 µg/ml, N = 4
Method: To each sample 25 µl of Limulus amoebocyte lysate (LAL; Lonza) was added and incubated for 10 min at 37°C after which 100 µl of LAL substrate was added and incubated for 6 min at 37°C. Reactions were quenched with 50 µl of 25% HOAc and read spectrophotometrically at 405 nm.

E. coli = assay: Killing of E. coli during pre-incubation with peptide; assay type: cell-based, Escherichia coli; details: 100 CFU/ml E. coli, 10 µg/ml peptide in RPMI
[4] = test system: leukocytes / target cells; assay: Cytotoxicity by trypan blue staining in the in vitro incubations; assay type: cell-based, human; details: TNF release incubations in blood, 4 h
BALB/c mice = assay: Mouse exposure study, repeated subcutaneous injection; assay type: in vivo
Method: Twenty four h after the fourth injection, mice were euthanized with CO2, blood was collected by cardiac puncture, and tissues were harvested and fixed in 10% buffered formalin. Histopathologic examination was performed on sections of heart, lung, liver, spleen, kidney, and injection site skin and subcutaneous tissue. A basic metabolic panel (UC Davis-William R. Pritchard Veterinary Medical Teaching Hospital) was performed on serum samples obtained by cardiac puncture at the time of euthanasia.

[5] = test system: BALB/c mice with CLP polymicrobial sepsis; assay: Cecal-ligation/puncture (CLP) induced sepsis; assay type: in vivo, mouse
Method: Polymicrobial peritonitis was induced in 6–8 week old BALB/c mice by CLP as described, [21]. Briefly, laparotomy was performed on anesthetized animals and the cecum was ligated below the ileocecal valve. Both walls of the cecum were punctured twice with an 18-gauge needle, and the surgical wound closed with 3–0 nylon suture. All animals fully recovered within 60 min. […] Animal health was evaluated daily for 28 days. As above, mice were euthanized when they became moribund.

[6] = human whole blood, data not shown
[7] = rat whole blood, data not shown
[8] = mouse whole blood, data not shown
[9] = test system: BALB/c mice challenged with E. coli K12; details: 8×10^8 CFU E. coli K12 i.p., single s.c. dose 5 mg/kg at challenge, n = 13
DA rats = test system: DA rats; parameters: method as in Schaal et. al, manuscript in preparation; details: repetitive (8–15 injections) s.c. challenge, after 8 weeks; ref Schaal et. al, manuscript in preparation; cited from earlier work
[10] = test system: SARS-coronavirus (SARS-CoV); details: cited from earlier work
host cells = details: cited from earlier work
Text: The only detected tissue effect as ...

in vitro = details: human, EDTA plasma
[11] = ref D. Tran & M.E. Selsted, unpublished data, cited from earlier work
[12] = PBL stimulated 4 h with 0.9 µg/ml ssRNA40 (TLR8 agonist), simultaneous addition of 10 µg/ml peptide

## CC[C@H](C)[C@@H]1NC(=O)[C@@H]2CSSC[C@H](NC(=O)[C@H](CCCNC(=N)N)NC(=O)[C@@H]3CSSC[C@H](NC1=O)C(=O)N[C@@H]([C@@H](C)O)C(=O)N[C@@H](CCCNC(=N)N)C(=O)NCC(=O)N[C@@H](Cc1ccccc1)C(=O)N3)C(=O)N[C@@H](CC(C)C)C(=O)N[C@H]1CSSC[C@H](NC(=O)[C@H](C(C)C)NC(=O)CNC(=O)[C@H](CCCNC(=N)N)NC(=O)[C@H](CCCNC(=N)N)NC1=O)C(=O)N[C@@H](CCCNC(=N)N)C(=O)N2 [RTD-1] (cyclo(GFCRCLCRRGVCRCICTR); disulfide 3-16, 5-14, 7-12)
[1]; HKLM-stimulated PBL, 10 µg/ml peptide, 4 h
  effect on induced levels of chemokines CXCL8 (IL-8), CCL2 (MCP-1), CCL3 (MIP-1α), CCL4 (MIP-1β): no suppression
[1]; [12]
  suppression of supernatant IL-1β level: 95%
  suppression of supernatant IL-8 level: 68%
[1]; RTD-1 treatment of PBLs
  effect on VEGF-A: reproducible elevation
[1]; unstimulated leukocytes, 10 µg/ml peptide alone, exception VEGF and to a lesser degree CCL2 (MCP-1)
  effect of peptide alone on cytokine/chemokine release: little effect
[2]; E. coli pre-treated with 10 µg/ml peptide for 0–120 min before addition of blood, 4 h, all time-points
  blockade of TNF release: complete blockade
[2]; E. coli-stimulated blood, 4 h, N = 2
  hierarchy of anti-TNF potencies: RTD-5>2>1>4>3
[2]; blood incubated 4 h with peptide alone, no stimulus
  effect of peptide alone on TNF release: no effect
THP-1 monocytic cells
  hierarchy of anti-TNF potencies: RTD-5>2>1>4>3
[3]; 10 min 37°C
  effectiveness in neutralizing E. coli LPS relative to polymyxin B (fold less effective): 50–100 fold
[3]
  neutralization of E. coli LPS: ineffective in neutralizing
E. coli
  time to killing of E. coli (absence of viable bacteria): ≤ 30 min
[4]
  cytotoxicity (trypan blue staining of leukocytes): no cytotoxicity was detected
BALB/c mice; 40 mg/kg s.c. daily, at day 4
  incidence of focal, non-erythematous swelling at injection site: 2/4
BALB/c mice; 160 mg/kg s.c. daily, by day 3
  incidence of focal, non-erythematous swelling at injection site: 4/4
BALB/c mice; after 4 day dosing regimen, all peptide levels tested
  histopathology of lungs, kidneys, heart, liver, spleen: no abnormalities
BALB/c mice; daily s.c. injections for 4 days, 2.5–160 mg/kg, basic metabolic panel
  serum chemistries: indistinguishable from saline-treated controls
BALB/c mice; daily s.c. injections for 4 days, up to 160 mg/kg (highest dose tested), groups of four
  acute toxicity: no acute toxicity was observed
BALB/c mice; multiple injections of 2.5 or 10 mg/kg
  lobular panniculitis with fat necrosis at injection site: absent
[5]; single i.v. dose administered 4 h after CLP surgery, 28 days
  long term survival: 10 of 11
[5]; single i.v. dose delayed until 24 h post CLP, through end of trial
  recovery / survival: 4 of 5
[6]
  time highly stable in whole blood: at least 24 h
[7]
  time highly stable in whole blood: at least 24 h
[8]
  time highly stable in whole blood: at least 24 h
[9]
  survival: significantly improved survival
DA rats
  anti-RTD-1 antibody: no anti-RTD-1 antibody
[10]
  virus neutralization in vitro: did not neutralize the virus
Host cells
  toxicity to host cells in vitro: non-toxic
In vitro
  remaining at 72 h, 50 µg/ml: 93%
[11]; 100°C, 30 min
  stability to heating: completely stable
[11]; pH 2.0
  stability to extended storage at pH 2.0: completely stable
